From patent US6593342B1, “Pharmaceutical compositions comprising 2-quinolones” (Laboratoire L. Lafon, priority 1998, dated 2003)

System: clonogenic cells
Experiment: Clonogenic test, overall statement
Format: cell-based
Settings: in words
Excerpt: 1—Interaction (Stimulation or Inhibition of Proliferation) With the Generation of Clonogenic Cells (Clonogenic Test)
The test used is that described by Hamburger et al. (Science, 1977; 197, 461-463) and Salmon et al. (New England J. Med., 298, 1321-1327). A cell is considered clonogenic if it has the capacity to proliferate and to give rise to a cell colony. “Human tumor stem cells” are the cells which are the source of the neoplastic cells which constitute a given tumor. These tumor stem cells are responsible for the relapse processes which may be observed after surgical resection of primary tumors and are also responsible for the formation of metastases. […]
The influence of the compounds of formulae (I) and (Ia) on the growth of the cell colonies obtained by culturing, for example, the mammalian tumor lines MCF7 and MXT and the colorectal line HT-29 on the semi-liquid culture medium known as “soft agar” was measured. […]
The tumor cell lines studied are maintained in culture in 25 cm^2 falcon dishes. […] The percentage of live cells is determined after staining with trypan blue. […] After fixing for 24 hours, the formalin is evaporated off and the number of stained cell colonies, thus consisting of metabolically active cells, and whose surface area is greater than 100 μm^2, is determined using an inverted microscope. […]

Compound	effect on the average number of clones of clonogenic cells relative to the reference situation
CCN(CC)C(=O)Cn1c(=O)c(-c2ccc(OC)cc2)cc2c(OC)cc(OC)cc21 [CRL8315, N,N-Diethyl-2-[5,7-dimethoxy-3-(4-methoxy-phenyl)-2-oxo-1,2-dihydro-1-quinolinyl]acetamide]	increase
CCN(CC)C(=O)CCn1c(=O)c(-c2ccc(OC)cc2)cc2c(OC)cc(OC)cc21 [CRL8283, N,N-Diethyl-3-[5,7-dimethoxy-3-(4-methoxy-phenyl)-2-oxo-1,2-dihydro-1-quinolinyl]propanamide]	reduce
